From publication PMC6751662, “Pharmacological and functional similarities of the human neuropeptide Y system in C. elegans challenges phylogenetic views on the FLP/NPR system” (Cell Communication and Signaling : CCS, 2019) come the findings set out here.

What all share (format): cell-based, C. elegans
The target of one assay is T1, NPR-3 (Caenorhabditis elegans, UniProt P90745).
T1 construct: expressed in transfected cells; host or cells: HEK293
T1 sequence (P90745 1-376): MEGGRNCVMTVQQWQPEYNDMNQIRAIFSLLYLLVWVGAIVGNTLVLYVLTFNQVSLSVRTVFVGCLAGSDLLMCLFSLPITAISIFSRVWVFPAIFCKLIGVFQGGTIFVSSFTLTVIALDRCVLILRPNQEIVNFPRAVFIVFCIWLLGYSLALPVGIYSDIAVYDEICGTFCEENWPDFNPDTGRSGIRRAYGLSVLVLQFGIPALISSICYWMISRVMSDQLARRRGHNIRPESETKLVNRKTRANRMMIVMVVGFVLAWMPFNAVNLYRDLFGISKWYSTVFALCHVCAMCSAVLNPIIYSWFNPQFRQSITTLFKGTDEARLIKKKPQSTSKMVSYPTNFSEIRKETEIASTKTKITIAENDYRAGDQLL
Briefly: cAMP reporter gene assay, Gi/o (inhibition of forskolin-induced cAMP), NPR-3. Particulars: for cAMP, x-fold of forskolin (mean), NPR-3: 1 µM forskolin set to 1.00; for cAMP, x-fold of forskolin (mean), NPR-3 / Gi (Gs) [x-fold of forskolin], NPR-3, mean: transiently transfected HEK293 cells, mean of at least three independent experiments; for Gi (Gs) [x-fold of forskolin], NPR-3, mean: inhibition of cAMP production induced by 1 µM forskolin (set to 1.00); for Emax: HEK293, read-out: Emax ± SEM [%]. The method, then:
(§1) Activation of Gs and Gi/o was assessed with a cAMP reporter gene assay. HEK293 cells grown to 70–80% confluency in 6-well plates were transiently co-transfected with vectors encoding the receptor and the cAMP reporter gene plasmid pGL4.29 [luc2P/CRE/Hygro] (Promega; 4 μg total, 1:1 ratio) using Metafectene Pro (3 μl/μg DNA; Biontex) following the manufacturer’s instructions. 16 h post transfection, the cells were seeded into white 384-well plates at a density of 20,000 cells/well. On the next day, the medium was removed and the cells were stimulated with 20 μl of peptide solution (or forskolin as positive control) in serum-free DMEM for 4 h. For measuring Gi/o activity, the peptide solutions additionally contained 1 μM forskolin to elevate cellular cAMP levels. After incubation, the luciferase substrate OneGlo in lysis buffer (Promega) was added and the luminescence was measured in a microplate reader Tecan Spark (Tecan). Data were analyzed with GraphPad Prism 5.03 and are shown as fold of basal or fold of forskolin in case of Gαi/o activity.
(§2) For in vitro activation, data is presented as mean ± SEM of at least three independent experiments conducted in technical triplicate. […] For the C. elegans NPRs, we considered the strongest response elicited by any of the peptides downstream of a particular receptor as the receptor’s maximal signal. This may or may not be the biological maximum that can be reached by the ‘true’ endogenous agonist. For the human receptors, the response to the established endogenous agonist reflected the maximal signal.
In general terms: In a reporter assay the amount or activity of a reporter protein is the signal.

The next assay deals with T2, NPR-4b (Caenorhabditis elegans, UniProt A0A078BTK0).
T2 sequence (A0A078BTK0 1-376): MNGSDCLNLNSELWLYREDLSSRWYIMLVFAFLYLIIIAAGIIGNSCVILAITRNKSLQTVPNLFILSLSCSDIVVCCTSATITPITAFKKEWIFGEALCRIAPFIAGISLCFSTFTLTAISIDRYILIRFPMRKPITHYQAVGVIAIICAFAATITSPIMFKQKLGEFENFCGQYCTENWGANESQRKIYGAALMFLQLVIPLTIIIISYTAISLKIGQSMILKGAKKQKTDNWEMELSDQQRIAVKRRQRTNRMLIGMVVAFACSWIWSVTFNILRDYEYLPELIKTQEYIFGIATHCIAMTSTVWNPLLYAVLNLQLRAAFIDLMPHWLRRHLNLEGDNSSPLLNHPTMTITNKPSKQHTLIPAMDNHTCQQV
Briefly: cAMP reporter gene assay, Gi/o (inhibition of forskolin-induced cAMP), NPR-4b. Particulars: for cAMP, x-fold of forskolin (mean), NPR-4b: 1 µM forskolin set to 1.00; for cAMP, x-fold of forskolin (mean), NPR-4b / Gi (Gs) [x-fold of forskolin], NPR-4b, mean / Emax: transiently transfected HEK293 cells; for cAMP, x-fold of forskolin (mean), NPR-4b / Gi (Gs) [x-fold of forskolin], NPR-4b, mean: mean of at least three independent experiments; for Gi (Gs) [x-fold of forskolin], NPR-4b, mean: inhibition of cAMP production induced by 1 µM forskolin (set to 1.00); for Emax: NPR-4b, forskolin (1 µM) set to 1.00, lower values correspond to high Gi/o activity, mean ± SEM of at least three independent experiments, SEM. The method, then:
as §1, with “(Tecan).” for “(Tecan). Data were analyzed with GraphPad Prism 5.03 and are shown as fold of basal or fold of forskolin in case of Gαi/o activity.”
as §2

Another assay deals with T3, NPR-5b (Caenorhabditis elegans, UniProt Q6F3C9).
T3 sequence (Q6F3C9 1-433): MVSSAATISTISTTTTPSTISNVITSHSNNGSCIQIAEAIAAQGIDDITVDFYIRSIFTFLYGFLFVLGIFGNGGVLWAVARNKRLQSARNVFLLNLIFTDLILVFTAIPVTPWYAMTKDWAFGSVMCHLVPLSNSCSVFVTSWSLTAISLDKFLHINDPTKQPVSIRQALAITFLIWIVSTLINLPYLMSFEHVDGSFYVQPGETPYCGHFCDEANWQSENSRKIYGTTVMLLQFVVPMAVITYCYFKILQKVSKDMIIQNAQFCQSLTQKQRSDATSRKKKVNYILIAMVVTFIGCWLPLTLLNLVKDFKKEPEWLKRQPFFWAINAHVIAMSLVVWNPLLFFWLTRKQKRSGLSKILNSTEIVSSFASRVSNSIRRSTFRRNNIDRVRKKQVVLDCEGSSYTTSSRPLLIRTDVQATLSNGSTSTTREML
The assay is described as follows: cAMP reporter gene assay, Gi/o (with forskolin), NPR-5b. Also on record: Emax: unit not given here. Particulars: transiently transfected HEK293 cells; for cAMP, x-fold of forskolin (mean), NPR-5b: 1 µM forskolin set to 1.00, values > 1 = cAMP stimulation; for cAMP, x-fold of forskolin (mean), NPR-5b / Gi (Gs) [x-fold of forskolin], NPR-5b, mean: mean of at least three independent experiments; for Gi (Gs) [x-fold of forskolin], NPR-5b, mean: with 1 µM forskolin (set to 1.00), increase of cellular cAMP consistent with Gs coupling; for Emax / EC50: NPR-5b; for Emax: forskolin (1 µM) set to 1.00, increase of cAMP, mean ± SEM of at least three independent experiments, SEM; for EC50: full concentration-response curve, with 1 µM forskolin, increase of cAMP, at least three independent experiments. The protocol: as §1, with “(Tecan).” for “(Tecan). Data were analyzed with GraphPad Prism 5.03 and are shown as fold of basal or fold of forskolin in case of Gαi/o activity.”
as §2

The target in a further assay is T4, NPR-11 (Caenorhabditis elegans, UniProt Q18179).
T4 construct: expressed in transfected cells; host or cells: HEK293, transient
T4 sequence (Q18179 1-402): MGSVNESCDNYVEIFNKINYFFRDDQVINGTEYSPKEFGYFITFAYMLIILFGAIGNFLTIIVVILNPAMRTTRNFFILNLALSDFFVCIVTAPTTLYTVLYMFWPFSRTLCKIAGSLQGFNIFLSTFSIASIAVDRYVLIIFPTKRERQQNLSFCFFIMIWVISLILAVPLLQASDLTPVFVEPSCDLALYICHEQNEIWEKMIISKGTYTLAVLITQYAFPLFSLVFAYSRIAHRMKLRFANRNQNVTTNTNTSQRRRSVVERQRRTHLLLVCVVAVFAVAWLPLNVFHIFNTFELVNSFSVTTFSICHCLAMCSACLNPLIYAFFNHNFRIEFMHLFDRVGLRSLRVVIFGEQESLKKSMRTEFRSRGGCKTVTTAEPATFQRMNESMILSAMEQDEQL
The assay is described as follows: cAMP reporter gene assay, Gi/o (inhibition of forskolin-induced cAMP), NPR-11. The following applies: for cAMP, x-fold of forskolin (mean), NPR-11: 1 µM forskolin set to 1.00; for cAMP, x-fold of forskolin (mean), NPR-11 / Gi (Gs) [x-fold of forskolin], NPR-11, mean: transiently transfected HEK293 cells, mean of at least three independent experiments; for Gi (Gs) [x-fold of forskolin], NPR-11, mean: inhibition of cAMP production induced by 1 µM forskolin (set to 1.00); for Emax: HEK293, read-out: Emax ± SEM [%], SEM. The method, then:
as §1, §2

Ends that are not written are not given here.

For “EASAFGDIIGELKGKGLGGRMRF-NH2 [FLP-27, NPY-like C. elegans FLP with C-terminal RxRF/Ya signature]”, the “cAMP, x-fold of forskolin (mean), NPR-3” value at NPR-3 (0.1 µM peptide) is on record as 0.84 x-fold of forskolin; at NPR-3 (10 µM peptide), 1.15 x-fold of forskolin. Further, the “cAMP, x-fold of forskolin (mean), NPR-4b” value at NPR-4b (0.1 µM peptide) is 1.07 x-fold of forskolin; at NPR-4b (10 µM peptide), 0.57 x-fold of forskolin. The “cAMP, x-fold of forskolin (mean), NPR-5b” value on NPR-5b (0.1 µM peptide) is on record as 0.88 x-fold of forskolin; on NPR-5b (10 µM peptide) it was 1.61 x-fold of forskolin. Also, the figures for the “cAMP, x-fold of forskolin (mean), NPR-11” value on NPR-11 (0.1 µM peptide) and at NPR-11 (10 µM peptide) were 0.71 x-fold of forskolin and 0.20 x-fold of forskolin, respectively.

Take “GLGPRPLAF-NH2 [[R8A]FLP-21, R8A control peptide of FLP-21, penultimate arginine exchanged for an alanine]”: the entries for the “Gi (Gs) [x-fold of forskolin], NPR-3, mean” value on NPR-3 (0.1 µM peptide) and at NPR-3 (10 µM peptide) were 1.20 x-fold of forskolin and 1.38 x-fold of forskolin, respectively. Besides, the “Gi (Gs) [x-fold of forskolin], NPR-4b, mean” value on NPR-4b (0.1 µM peptide) is listed as 0.95 x-fold of forskolin; at NPR-4b (10 µM peptide), 0.99 x-fold of forskolin. Besides, the results for the “Gi (Gs) [x-fold of forskolin], NPR-5b, mean” value on NPR-5b (0.1 µM peptide) and on NPR-5b (10 µM peptide) were 1.06 x-fold of forskolin and 0.97 x-fold of forskolin, respectively. The “Gi (Gs) [x-fold of forskolin], NPR-11, mean” value is given as 0.87 x-fold of forskolin at NPR-11 (0.1 µM peptide) and 0.67 x-fold of forskolin on NPR-11 (10 µM peptide).

For GLGPRPLRF-NH2 [FLP-21], the Emax at NPR-3 (SEM) is -0.59 ± 0.26%; on NPR-4b, -0.58 ± 0.07%; on NPR-5b, 3.8 ± 0.26; on NPR-11 it was -0.72 ± 0.06%. For the same substance, the EC50 – broadly, the midpoint of the concentration-response curve – on NPR-4b was determined as 358 nM; at NPR-5b it was 432 nM; on NPR-11, 102 nM.

“NPENDTPFGTMRF-NH2 [FLP-3-4, C. elegans FMRFamide-like peptide, C-terminally amidated, synthesized by SPPS]”: the “cAMP, x-fold of forskolin (mean), NPR-3” value is on record as 0.85 x-fold of forskolin on NPR-3 (0.1 µM peptide) and 0.89 x-fold of forskolin at NPR-3 (10 µM peptide). The entries for the “cAMP, x-fold of forskolin (mean), NPR-4b” value on NPR-4b (0.1 µM peptide) and on NPR-4b (10 µM peptide) were 0.67 x-fold of forskolin and 0.23 x-fold of forskolin, respectively. Further, the “cAMP, x-fold of forskolin (mean), NPR-5b” value is given as 1.10 x-fold of forskolin at NPR-5b (0.1 µM peptide) and 3.95 x-fold of forskolin on NPR-5b (10 µM peptide). Further, the entries for the “cAMP, x-fold of forskolin (mean), NPR-11” value at NPR-11 (0.1 µM peptide) and on NPR-11 (10 µM peptide) were 0.80 x-fold of forskolin and 0.97 x-fold of forskolin, respectively.

For the substance PrRP31 [reference compound], the “cAMP, x-fold of forskolin (mean), NPR-3” value is 1.10 x-fold of forskolin on NPR-3 (0.1 µM peptide) and 1.29 x-fold of forskolin on NPR-3 (10 µM peptide). The “cAMP, x-fold of forskolin (mean), NPR-4b” value is listed as 1.05 x-fold of forskolin on NPR-4b (0.1 µM peptide) and 0.64 x-fold of forskolin on NPR-4b (10 µM peptide). The “cAMP, x-fold of forskolin (mean), NPR-5b” value on NPR-5b (0.1 µM peptide) was 0.91 x-fold of forskolin; on NPR-5b (10 µM peptide), 1.10 x-fold of forskolin. Further, the figures for the “cAMP, x-fold of forskolin (mean), NPR-11” value at NPR-11 (0.1 µM peptide) and on NPR-11 (10 µM peptide) were 1.06 x-fold of forskolin and 0.74 x-fold of forskolin, respectively.

Regarding RGPSGPLAF-NH2 [[R8A]FLP-15-2], the “Gi (Gs) [x-fold of forskolin], NPR-3, mean” value on NPR-3 (0.1 µM peptide) is 0.97 x-fold of forskolin; on NPR-3 (10 µM peptide), 0.88 x-fold of forskolin. For the same substance, the “Gi (Gs) [x-fold of forskolin], NPR-4b, mean” value on NPR-4b (0.1 µM peptide) is 0.93 x-fold of forskolin; at NPR-4b (10 µM peptide), 0.97 x-fold of forskolin. For the same substance, the entries for the “Gi (Gs) [x-fold of forskolin], NPR-5b, mean” value on NPR-5b (0.1 µM peptide) and at NPR-5b (10 µM peptide) were 0.98 x-fold of forskolin and 0.93 x-fold of forskolin, respectively. Besides, the “Gi (Gs) [x-fold of forskolin], NPR-11, mean” value on NPR-11 (0.1 µM peptide) is 0.93 x-fold of forskolin; on NPR-11 (10 µM peptide) it was 0.53 x-fold of forskolin.

As to RGPSGPLRF-NH2 [FLP-15-2], the Emax on NPR-3 (SEM) was -0.8 ± 0.09%; at NPR-4b, -0.65 ± 0.07%; at NPR-5b, 3.28 ± 1.7; on NPR-11 it was -0.76 ± 0.11%. For the same substance, the EC50 on NPR-3 (SEM) was 50.1 nM; at NPR-5b, 6650 nM; at NPR-11 it was 998 nM.
